In patent publication US8735442B2, “Composition for alleviating ultraviolet radiation-induced damage” (priority 2009, dated 2014):
Like-named read-outs stand apart in the source and are kept apart here.

Legend:
[1] = tested on: human dermal fibroblast derived from a patient having xeroderma pigmentosum (Group A) (XP30S (SVT)); assay: UV-A irradiation-induced cell damage in XP cells, pretreatment, Alamar Blue (Example 5); format: cell-based; conditions: UV-A 1 J/cm^2; pretreatment 0.1 μM; non-UV irradiating condition about 690, negative control about 630
Procedure: A human dermal fibroblast derived from a patient having xeroderma pigmentosum (Group […]), hereinafter referred to as “XP cell”) which was obtained from Japan Health Science Foundation was employed and cultured by the same method described in Example 3. […] The UV dose was measured using UV RADIOMETER […] Corporation).

[2] = tested on: human neonatal dermal fibroblast (Cryo NHDF-Neo); assay: UV-A irradiation-induced cell damage in fibroblasts, pretreatment, Alamar Blue (Example 3); conditions: UV-A 22.5 J/cm^2; for fluorescent intensity: control about 1,100
[3] = tested on: human neonatal epidermal keratinocyte (Cryo NHEK-Neo); assay: UV-B irradiation-induced cell damage in keratinocytes, Alamar Blue (Example 1); format: cell-based; conditions: UV-B 75 mJ/cm^2; 0.1 to 100 μM, pretreatment or posttreatment; non-irradiated about 22,000, irradiated 5,000 to 7,000
Procedure: The cell employed was a commercially available human neonatal epidermal keratinocyte (Cryo NHEK-Neo, Sanko-Junyaku Co., Ltd.).
Thereafter, the culture medium was supplemented with Alamar Blue (trade mark, Biosource International Inc.) at a final concentration of 10%, and its supernatant was examined for the fluorescent intensity 3 hours later with an excitation wavelength of 544 nm and a fluorescent wavelength of 590 nm as described by Ahmed S. A. et al. (J. Immunol. Method. 170, 211-224 (1994)) and in accordance with the manufacture's instruction.

[4] = tested on: human neonatal dermal fibroblast (Cryo NHDF-Neo); conditions: for fluorescent intensity / alleviation of the cell damage: 0.1 μM; for fluorescent intensity: Mean ± SD, N = 4-6; for alleviation of the cell damage: UV-A 12.5 J/cm^2 and 15 J/cm^2
Procedure: The cell employed was a commercially available human neonatal dermal fibroblast (Cryo NHDF-Neo, Sanko-Junyaku Co., Ltd.). This cell was inoculated at 2×10^5 cells/mL to a commercially available culture dish of 35 mm in diameter (BD FALCON 353001, Beckton Dickinson Japan), where it was cultured in a commercially available cell culture medium (D-MEM (1 g/L glucose, Wako Pure Chemical Industries, Ltd.) supplemented with 10% fetal bovine serum (hereinafter referred to as “ordinary medium 2”). This cell was cultured for about 24 hours in a 5% CO2 and saturated water vapor atmosphere at 37° C.
Thereafter, the culture medium for culturing the cell described above was switched to 1 mL of a BSO medium containing a glutathione biosynthesis inhibitor BSO (L-buthionine-(S,R)-sulfoximine, Wako Pure Chemical Industries, Ltd.) at 1×10^−3%, where the culture was conducted for about 24 hours in a 5% CO2 and saturated water vapor atmosphere at 37° C. The BSO medium described above was prepared by a 200-fold dilution of a stock solution containing 0.2% BSO in ethyl alcohol with the ordinary medium 2 described above.
[…] was dissolved in a distilled water at 2×10^−3%, and the resultant solution was subjected to a 200-fold dilution (final concentration: 1×10^−5%) with a phosphate buffer solution PBS containing calcium ion and magnesium ion (PBS+) to obtain a medium (hereinafter referred to as “UV irradiation medium”), which was warmed preliminarily before use.
Before UV-A irradiation, the culture medium was replaced with 1 mL of the UV irradiation medium described above. […] The UV dose was measured using UV RADIOMETER UVR-3036/S (Topcon Corporation).
After UV irradiation, the cell was returned to the ordinary medium 2 described above where it was cultured in a 5% CO2 and saturated water vapor atmosphere at 37° C. for 21 hours. For examining the effect of adding proline after UV irradiation (hereinafter referred to as “posttreatment”), this 21-hour cultured medium was supplemented with 0.01 to 1000 μM L- or D-proline.
Thereafter, the fluorescent intensity was measured by a method described in Example 1.

[5] = tested on: human neonatal epidermal keratinocyte (Cryo NHEK-Neo); assay: UV-B irradiation-induced cell damage in keratinocytes, D-amino acids and cysteine, Alamar Blue (Example 4); format: cell-based; conditions: UV-B 25 mJ/cm^2; 100 μM before and after irradiation; without the amino acid about 500 to 600
Procedure: The cell employed was a commercially available human neonatal epidermal keratinocyte (Cryo NHEK-Neo, Sanko-Junyaku Co., Ltd.). […] Thereafter, it was cultured for 2 days in 2 mL of the ordinary medium 3 containing 100 μM D-alanine, D-serine, D-hydroxyproline, D-aspartic acid, D-cysteine or L-cysteine. As a control, the ordinary medium 3 containing PBS instead of the D-amino acid was added to the ordinary medium 3.
Thereafter, the fluorescent intensity was measured by the method described in Example 1.

[6] = UV irradiation amount 0 J/cm^2, control 12380 ± 21
[7] = UV-A 12.5 J/cm^2, control 2503 ± 629
[8] = UV-A 15 J/cm^2, control 1018 ± 89

With `N[C@H](CCC(=O)O)C(=O)O` [D-glutamic acid] the fluorescent intensity [1] was “about 675”, the fluorescent intensity ([2]; pretreatment 1 μM) was “about 1,700” and the “cell damage alleviating effect (fluorescent intensity of Alamar Blue)” value [3] was “the cell damage was alleviated”.

In the case of `O=C(O)[C@@H]1CCCN1` [L-proline, reference compound], the fluorescent intensity [1] was “about 583”, the fluorescent intensity [4, 6] was 12211 ± 77 and the fluorescent intensity [4, 7] was 2877 ± 834. For the same molecule, the “alleviation of the cell damage” value [4] was “Almost no alleviation of the cell damage”, the fluorescent intensity [4, 8] was 1552 ± 320 and the “alleviating effect on ultraviolet irradiation-induced damage” value ([4]; summary statement referring to the Examples) was “no alleviating effect on ultraviolet irradiation-induced damage”.

`O=C(O)[C@H]1CCCN1` [D-proline] was tested, and the fluorescent intensity [1] was “about 664”, the fluorescent intensity ([2]; pretreatment 0.1 μM) was “about 1,750” and the fluorescent intensity [4, 6] was 12270 ± 68 ^. The fluorescent intensity [4, 7] was 4615 ± 1218 *^1, the “alleviation of the cell damage” value [4] was “the cell damage was alleviated” and the fluorescent intensity [4, 8] was 2365 ± 648 *^2. The “cell damage alleviating effect (fluorescent intensity of Alamar Blue)” value ([4]; UV-A 15 J/cm^2 and 22.5 J/cm^2, posttreatment, non-irradiated about 12,000, irradiated about 5,000 and about 3,000) was “the cell damage was alleviated”.

`N[C@@H](CCC(=O)O)C(=O)O` [L-glutamic acid] was tested, and the fluorescent intensity [1] was “about 658”, the “cell damage alleviating effect” value ([2]; pretreatment 1 μM) was “no cell damage alleviating effect was observed” and the fluorescent intensity ([2]; pretreatment 1 μM) was “about 1,100”. For the same molecule, the “cell damage alleviating effect (fluorescent intensity of Alamar Blue)” value [3] was “No cell damage alleviating effect was observed”.

With `N[C@H](CS)C(=O)O` [D-cysteine] the fluorescent intensity [1] was “about 638” and the “fluorescent intensity of Alamar Blue” value [5] was “about 700”.

In the case of `N[C@H](CO)C(=O)O` [D-serine], the “fluorescent intensity of Alamar Blue” value [5] was “about 490”.

In the case of `N[C@H](CC(=O)O)C(=O)O` [D-aspartic acid], the “fluorescent intensity of Alamar Blue” value [5] was “about 600”.

With `C[C@@H](N)C(=O)O` [D-alanine] the “fluorescent intensity of Alamar Blue” value [5] was “about 570”.

In the case of `O=C(O)[C@H]1C[C@H](O)CN1` [D-hydroxyproline], the “fluorescent intensity of Alamar Blue” value [5] was “about 550”.

`N[C@@H](CS)C(=O)O` [L-cysteine] was tested, and the fluorescent intensity [1] was “about 688” and the “fluorescent intensity of Alamar Blue” value [5] was “about 700”.
